# Laboratory results published in PMC3368506 (Journal of the American Chemical Society, 2012).
# Where two headings read alike, the source gives them in different places.
# Assays:
# Cu^2+–Aβ42 species = Cu^2+–Aβ42 species (Homo sapiens, UniProt P05067); test: H2O2 production, HRP/Amplex Red assay; type: biochemical; details: reducing conditions (sodium ascorbate)
# Neuro2A (N2A) cells = test: Cytotoxicity, Alamar Blue cell viability assay; type: cell-based, Mouse
# [1] = 1:1 metal:ligand, 50 μM each, ref [78], cited from earlier work
# [2] = pH 7.4; 1:1 metal:ligand, 50 μM each; ref [78]; cited from earlier work
# Sequence of Cu^2+–Aβ42 species (P05067 672-713 limits assumed): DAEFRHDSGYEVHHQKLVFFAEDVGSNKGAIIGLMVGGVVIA
smiles,measurement,setting,value
"Oc1c(I)cc(Cl)c2cccnc12 [CQ, clioquinol]",Reduction of H2O2 production by Cu–Aβ42 species,Cu^2+–Aβ42 species,almost no effect
same,"Cell survival, disaggregation conditions",Neuro2A (N2A) cells; Aβ42 fibrils 20 μM + compound 2 μM + Cu^2+ 20 μM,marked cell toxicity
same,Cell survival,Neuro2A (N2A) cells; concentrations >2 μM,< 30%
"O=C(O)CN(CCN(CC(=O)O)CC(=O)O)CCN(CC(=O)O)CC(=O)O [DTPA, diethylenetriaminepentaacetic acid]",pCu (−log[Cu^2+]free),[1]; pH 6.6,9.7
same,pCu (−log[Cu^2+]free),[1]; pH 7.4,10.7
same,pZn (−log[Zn^2+]free),[2],9.3
"O=C(O)CN(CCN(CC(=O)O)CC(=O)O)CC(=O)O [EDTA, ethylenediaminetetraacetic acid]",Cell survival,Neuro2A (N2A) cells; up to 20 μM concentration,90–95%
"CN(Cc1ccccn1)Cc1ccccn1 [L*, N-methyl-N,N-bis(2-pyridylmethyl)amine]",Reduction of H2O2 production by Cu–Aβ42 species,Cu^2+–Aβ42 species,dramatic reduction
"c1cnc2c(c1)ccc1cccnc12 [phen, phenanthroline]",Reduction of H2O2 production by Cu–Aβ42 species,Cu^2+–Aβ42 species,almost no effect
